From article doi:10.1101/2022.04.05.487101v2 (biorxiv, 2022)

Target: SOX2 (Homo sapiens, UniProt P48431)
Test: competitive EMSA
Format: binding
Conditions: 300 uM compound; pH 7.5; competes with DNA; off-target control

Sequence of SOX2 (P48431 whole entry): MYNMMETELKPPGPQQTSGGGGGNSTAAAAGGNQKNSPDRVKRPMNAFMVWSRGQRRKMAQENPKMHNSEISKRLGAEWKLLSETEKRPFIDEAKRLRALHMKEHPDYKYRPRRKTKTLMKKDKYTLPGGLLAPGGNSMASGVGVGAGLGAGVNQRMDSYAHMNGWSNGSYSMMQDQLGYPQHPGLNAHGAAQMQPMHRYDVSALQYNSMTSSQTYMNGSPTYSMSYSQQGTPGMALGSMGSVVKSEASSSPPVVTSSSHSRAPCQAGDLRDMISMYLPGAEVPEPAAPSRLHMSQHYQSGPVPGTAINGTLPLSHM

For `Cc1cc2nc(-c3cccc(NC(=O)c4ccc(C)c([N+](=O)[O-])c4)c3)oc2cc1C` [A, Compound A], the “competitive EMSA (loss of shifted biotin-DNA probe)” value was “SOX2 was competed by Compound A only”.
